pIC50: −log10 of the molar value.
How the values were obtained:
[1] = molecular target: T1, STAT3 (Homo sapiens, UniProt P40763); experiment: STAT3 Fluorescence Polarization (FP) Assay; assay type: binding
T1 construct: Recombinant STAT3 protein (STAT3(G127-I722))
How it was run: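 Recombinant STAT3 (G127–I722, 25 nM) was mixed with 2 nM 5-FAM-GpYLPQTV-NH2 probe in HEPES pH 7.4 buffer with 1% DMSO and serially diluted compound. Fluorescence polarization was read after 45 min at room temperature. IC50 came from nonlinear regression of mP versus log concentration and was binned A (≤100 nM), B (>100–1000 nM), C (>1–10 μM) or D (>10 μM).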

[2] = molecular target: T2, STAT6 (Homo sapiens, UniProt P42226); experiment: STAT6 Fluorescence Polarization (FP) Assay; assay type: binding
T2 construct: Recombinant STAT6 protein (STAT6(W123-T658))
T2 sequence (P42226 123-658): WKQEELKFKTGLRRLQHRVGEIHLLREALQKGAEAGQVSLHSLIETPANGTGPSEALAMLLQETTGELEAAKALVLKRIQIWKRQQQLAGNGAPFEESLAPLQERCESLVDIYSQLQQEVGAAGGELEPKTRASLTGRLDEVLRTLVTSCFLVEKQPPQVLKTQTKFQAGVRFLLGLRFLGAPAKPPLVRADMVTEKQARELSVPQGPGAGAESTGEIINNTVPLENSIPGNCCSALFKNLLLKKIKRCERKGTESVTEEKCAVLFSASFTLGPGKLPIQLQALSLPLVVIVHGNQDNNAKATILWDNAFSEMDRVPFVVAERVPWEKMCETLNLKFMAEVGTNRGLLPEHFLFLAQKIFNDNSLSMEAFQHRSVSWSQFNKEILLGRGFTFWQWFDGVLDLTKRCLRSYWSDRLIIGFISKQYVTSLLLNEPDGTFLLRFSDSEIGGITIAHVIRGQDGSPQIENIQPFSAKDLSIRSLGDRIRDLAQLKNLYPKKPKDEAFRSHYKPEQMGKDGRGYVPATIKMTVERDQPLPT
How it was run: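 STAT6(W123-T658) at 250 nM with 2 nM 5-FAM-ApYKPFQDLI-NH2 probe in HEPES pH 7.4, 50 mM NaCl, EDTA, Tween 20, DTT, 1% DMSO. FP read after 45 min at room temperature; IC50 from nonlinear fit of mP versus log concentration.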

[3] = molecular target: T3, pSTAT6 (Homo sapiens, UniProt P42226); experiment: MSD-pSTAT-PBMC Assay (pSTAT6, IL-4 stimulated); assay type: cell-based; conditions: compound 3 hrs, then 1 ng/mL IL-4 10 min, pY641-STAT6, read-out: pSTAT6 IC50
T3 sequence (P42226 1-847): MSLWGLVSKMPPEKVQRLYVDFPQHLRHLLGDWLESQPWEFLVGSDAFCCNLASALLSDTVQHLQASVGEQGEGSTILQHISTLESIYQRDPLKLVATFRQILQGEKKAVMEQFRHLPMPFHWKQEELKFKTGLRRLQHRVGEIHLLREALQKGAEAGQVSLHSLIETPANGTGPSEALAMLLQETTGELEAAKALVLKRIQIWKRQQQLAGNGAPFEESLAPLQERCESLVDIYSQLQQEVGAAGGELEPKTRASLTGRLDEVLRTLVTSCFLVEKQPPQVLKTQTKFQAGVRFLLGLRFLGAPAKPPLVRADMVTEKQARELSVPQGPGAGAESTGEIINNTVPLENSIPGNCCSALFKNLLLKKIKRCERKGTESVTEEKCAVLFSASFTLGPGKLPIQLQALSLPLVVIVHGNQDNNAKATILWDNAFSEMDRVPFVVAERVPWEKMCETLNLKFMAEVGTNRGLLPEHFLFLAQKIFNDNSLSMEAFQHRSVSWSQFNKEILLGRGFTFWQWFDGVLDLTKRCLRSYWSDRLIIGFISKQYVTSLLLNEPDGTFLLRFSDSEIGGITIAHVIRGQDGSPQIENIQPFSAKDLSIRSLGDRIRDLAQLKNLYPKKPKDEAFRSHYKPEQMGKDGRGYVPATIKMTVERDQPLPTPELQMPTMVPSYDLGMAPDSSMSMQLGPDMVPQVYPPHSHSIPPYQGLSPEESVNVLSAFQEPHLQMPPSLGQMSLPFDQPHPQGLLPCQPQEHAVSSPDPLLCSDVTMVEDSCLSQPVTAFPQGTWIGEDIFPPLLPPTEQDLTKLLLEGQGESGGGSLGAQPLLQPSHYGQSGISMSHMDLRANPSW
Text: Cryopreserved Peripheral Blood Mononuclear Cells (PBMC) are from AllCells. Recombinant Human IL-4 and IL-6 are from Peprotech. Mouse monoclonal anti-STAT3 antibody, rabbit monoclonal anti-pY705-STAT3 antibody, rabbit monoclonal Anti-pY641-STAT6 antibody, and lysis buffer are from Cell Signaling Technology (CST). Mouse monoclonal anti-STAT6 antibody is from BioLegend. Assay plates, blocker, and anti-rabbit secondary antibody are from Meso Scale Discovery (MSD).
Cryopreserved PBMCs were thawed out and allowed to recover overnight in IMDM+10% heat-inactivated FBS prior to plating 50,000 (STAT3) or 25,000 (STAT6) cells per well in 96-well U-bottom tissue culture plates. Cells were treated with compound for 3 hrs, then stimulated with 10 ng/mL IL-6 (STAT3) or 1 ng/mL IL-4 (STAT6) for 10 min. Cells were then spun down and washed with ice-cold PBS prior to lysing the cell pellet with 1× lysis buffer (CST) with 1× HALT protease and phosphatase inhibitor cocktail (Thermo). Lysates were transferred to and incubated overnight at 4° C. with shaking in QuickPlex 96-well high bind assay plates (MSD) pre-coated overnight with 30 μL per well of […] mouse monoclonal anti-STAT3 antibody (STAT3) or 2 μg/mL mouse monoclonal anti-STAT6 antibody (STAT6) in 1× PBS, and pre-blocked for 1 hour with 3% Blocker-A (MSD). Captured protein in the assay plates were then washed and probed with 25 μL per well of […] rabbit monoclonal anti-pY705-STAT3 antibody (STAT3) or […] rabbit monoclonal Anti-pY641-STAT6 antibody (STAT6) in 1% Blocker-A for 1 hour at room temperature with shaking, then washed and probed with 25 ul per well of 1 ug/ml Sulfo-TAG Labeled Goat Anti-Rabbit Antibody (MSD) in 1% Blocker-A for 1 hour at room temperature with shaking. Assay plates were then washed and 150 μL of 1× Read Buffer-T (MSD) was added to each well prior to reading on an SQ120 MSD Plate Reader. Assay signal from each sample was subtracted by the signal from unstimulated control wells and normalized to DMSO control wells. IC50 values were calculated using Graph Pad Prism Dose-Response Nonlinear Regression with variable slope. For both pSTAT3 and pSTAT6 A=≤100 nM; B=>100-1000 nM; C=>1000-3000 nM; and D=>3 μM.

T1 sequence (P40763 127-722): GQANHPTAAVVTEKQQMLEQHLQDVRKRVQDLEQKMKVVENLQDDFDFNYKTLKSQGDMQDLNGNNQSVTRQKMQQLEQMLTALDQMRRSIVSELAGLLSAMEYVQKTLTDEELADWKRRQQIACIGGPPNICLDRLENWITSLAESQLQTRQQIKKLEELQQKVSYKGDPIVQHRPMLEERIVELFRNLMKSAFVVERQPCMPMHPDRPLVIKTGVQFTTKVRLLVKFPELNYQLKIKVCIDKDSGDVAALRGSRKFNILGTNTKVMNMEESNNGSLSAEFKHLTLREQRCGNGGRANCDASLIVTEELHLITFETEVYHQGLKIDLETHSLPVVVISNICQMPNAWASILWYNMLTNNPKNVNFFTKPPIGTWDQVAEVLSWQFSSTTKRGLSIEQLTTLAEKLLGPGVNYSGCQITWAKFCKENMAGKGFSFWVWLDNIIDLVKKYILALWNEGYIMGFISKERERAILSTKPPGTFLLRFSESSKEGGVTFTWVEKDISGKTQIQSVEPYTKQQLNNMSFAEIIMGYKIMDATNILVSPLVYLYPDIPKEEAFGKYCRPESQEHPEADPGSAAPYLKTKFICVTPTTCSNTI

SMILES	pIC50 [1]	pIC50 [2]	pIC50 [3]
N#CC1CN(C(=O)C2CCC3CCCCC(NC(=O)c4cc5cc(C(F)(F)P(=O)(O)O)ccc5s4)C(=O)N32)CC1c1cccc(OCCCCCC#Cc2cccc3c2CN(C2CCC(=O)NC2=O)C3=O)c1 [Compound 13, ((2-(((3S,6S,10aS)-3-((rel-3S,4R)-3-cyano-4-(3-((7-(2-(2,6-dioxopiperidin-3-yl)-1-oxoisoindolin-4-yl)hept-6-yn-1-yl)oxy)phenyl)pyrrolidine-1-carbonyl)-5-oxodecahydropyrrolo[1,2-a]azocin-6-yl)carbamoyl)benzo[b]thiophen-5-yl)difluoromethyl)phosphonic acid]	6.00 to 7.00	> 6.52	< 5.52
O=C1CCC(c2ccc(OCCCCCOc3cc([C@@H]4CN(C(=O)[C@@H]5CC[C@@H]6CCCC[C@H](NC(=O)c7cc8cc(C(F)(F)P(=O)(O)O)ccc8s7)C(=O)N65)C5(CC5)C4)ccn3)cc2)C(=O)N1 (stereo partly drawn) [Compound 19, ((2-(((3S,6S,10aS)-3-((6R)-6-(2-((5-(4-(2,6-dioxopiperidin-3-yl)phenoxy)pentyl)oxy)pyridin-4-yl)-4-azaspiro[2.4]heptane-4-carbonyl)-5-oxodecahydropyrrolo[1,2-a]azocin-6-yl)carbamoyl)benzo[b]thiophen-5-yl)difluoromethyl)phosphonic acid]	5.00 to 6.00	5.52 to 6.52	< 5.52
O=C1CCC(n2c(=O)[nH]c3cc(N4CCC(n5ccc([C@@H]6CN(C(=O)[C@@H]7CC[C@@H]8CCCC[C@H](NC(=O)c9cc%10cc(C(F)(F)P(=O)(O)O)ccc%10s9)C(=O)N87)C7(CC7)C6)cc5=O)CC4)ccc32)C(=O)N1 (stereo partly drawn) [Compound 24, ((2-(((3S,6S,10aS)-3-((6R)-6-(1-(1-(1-(2,6-dioxopiperidin-3-yl)-2-oxo-2,3-dihydro-1H-benzo[d]imidazol-5-yl)piperidin-4-yl)-2-oxo-1,2-dihydropyridin-4-yl)-4-azaspiro[2.4]heptane-4-carbonyl)-5-oxodecahydropyrrolo[1,2-a]azocin-6-yl)carbamoyl)benzo[b]thiophen-5-yl)difluoromethyl)phosphonic acid]	5.00 to 6.00	5.52 to 6.52	< 5.52
N#CC1CN(C(=O)C2CCC3CCCCC(NC(=O)c4cc5cc(C(F)(F)P(=O)(O)O)ccc5s4)C(=O)N32)CC1c1cccc(OCCOCCOc2cccc3c2CN(C2CCC(=O)NC2=O)C3=O)c1 [Compound 16, ((2-(((3S,6S,10aS)-3-((rel-3S,4R)-3-cyano-4-(3-(2-(2-((2-(2,6-dioxopiperidin-3-yl)-1-oxoisoindolin-4-yl)oxy)ethoxy)ethoxy)phenyl)pyrrolidine-1-carbonyl)-5-oxodecahydropyrrolo[1,2-a]azocin-6-yl)carbamoyl)benzo[b]thiophen-5-yl)difluoromethyl)phosphonic acid]	6.00 to 7.00	5.52 to 6.52	5.52 to 6.00
CCCC(=O)SCCOP(=O)(OCCSC(=O)CCC)C(F)(F)c1ccc2sc(C(=O)NC3CCCCC4CCC(C(=O)N5CC(C#N)C(c6cccc(OCCCCOc7ccc(C8CCC(=O)NC8=O)cc7)c6)C5)N4C3=O)cc2c1 [Compound 4, trans-S,S(((((2-(((3S,6S,10aS)-3-(3-cyano-4-(3-(4-(4-(2,6-dioxopiperidin-3-yl)phenoxy)butoxy)phenyl)pyrrolidine-1-carbonyl)-5-oxodecahydropyrrolo[1,2-a]azocin-6-yl)carbamoyl)benzo[b]thiophen-5-yl)difluoromethyl)phosphoryl)bis(oxy))bis(ethane-2,1-diyl)) dibutanethioate]			> 7.00

Results, then the compound that gave them:

pIC50 [1]	pIC50 [2]	pIC50 [3]	SMILES
		6.00 to 7.00	CCCC(=O)SCCOP(=O)(OCCSC(=O)CCC)C(F)(F)c1ccc2sc(C(=O)N[C@H]3CCCC[C@H]4CC[C@@H](C(=O)N5C[C@@H](C#N)[C@H](c6cccc(OCCCCCC#Cc7cccc8c7CN(C7CCC(=O)NC7=O)C8=O)c6)C5)N4C3=O)cc2c1 (relative stereo) [Compound 14, S,S(((((2-(((3S,6S,10aS)-3-((rel-3S,4R)-3-cyano-4-(3-((7-(2-(2,6-dioxopiperidin-3-yl)-1-oxoisoindolin-4-yl)hept-6-yn-1-yl)oxy)phenyl)pyrrolidine-1-carbonyl)-5-oxodecahydropyrrolo[1,2-a]azocin-6-yl)carbamoyl)benzo[b]thiophen-5-yl)difluoromethyl)phosphoryl)bis(oxy))bis(ethane-2,1-diyl)) dibutanethioate]
		> 7.00	CCCC(=O)SCCOP(=O)(OCCSC(=O)CCC)C(F)(F)c1ccc2sc(C(=O)NC3CCCCC4CCC(C(=O)N5CC(C#N)C(c6cccc(OCCOCCOc7cccc8c7CN(C7CCC(=O)NC7=O)C8=O)c6)C5)N4C3=O)cc2c1 [Compound 15, S,S(((((2-(((3S,6S,10aS)-3-((rel-3S,4R)-3-cyano-4-(3-(2-(2-((2-(2,6-dioxopiperidin-3-yl)-1-oxoisoindolin-4-yl)oxy)ethoxy)ethoxy)phenyl)pyrrolidine-1-carbonyl)-5-oxodecahydropyrrolo[1,2-a]azocin-6-yl)carbamoyl)benzo[b]thiophen-5-yl)difluoromethyl)phosphoryl)bis(oxy))bis(ethane-2,1-diyl)) dibutanethioate]
		> 7.00	CCCC(=O)SCCOP(=O)(OCCSC(=O)CCC)C(F)(F)c1ccc2sc(C(=O)N[C@H]3CCCC[C@H]4CC[C@@H](C(=O)N5C[C@@H](c6ccn(CCCCCOc7ccc(C8CCC(=O)NC8=O)cc7)c(=O)c6)CC56CC6)N4C3=O)cc2c1 (stereo partly drawn) [Compound 18, S,S(((((2-(((3S,6S,10aS)-3-((6R)-6-(1-(5-(4-(2,6-dioxopiperidin-3-yl)phenoxy)pentyl)-2-oxo-1,2-dihydropyridin-4-yl)-4-azaspiro[2.4]heptane-4-carbonyl)-5-oxodecahydropyrrolo[1,2-a]azocin-6-yl)carbamoyl)benzo[b]thiophen-5-yl)difluoromethyl)phosphoryl)bis(oxy))bis(ethane-2,1-diyl)) dibutanethioate]

Source: patent US20260306642A1, “STAT DEGRADERS AND USES THEREOF” (Recludix Pharma, Inc., priority 2023, published 2026)
